# “Also recorded” adds a separate entry of the source.
# What was measured:
# [1] = tested on: cell surface PrP on N2a cells; assay type: cell-based
# 22L prions = assay type: cell-based; conditions: for rebound of infectivity after treatment cessation (22L): 18 days post-infection, 6 days after treatment cessation; for infection of PK1 neuroblastoma cells by 22L prions (PrPSc western blot): pretreated 3 days, treated 12 days after infection, 9 and 18 days post-infection
# RML prions = assay type: cell-based; conditions: for rebound of infectivity after treatment cessation (RML): 18 days post-infection, 6 days after treatment cessation; for infection of PK1 neuroblastoma cells by RML prions (PrPSc western blot): pretreated 3 days, treated 12 days after infection, 9 and 18 days post-infection
# [2] = tested on: RML scrapie-infected PK1 cells; assay type: cell-based; conditions: 1 μg/ml PIPLC, 26 hours
# cell surface PrP = conditions: 1 μg/ml
# [3] = tested on: cell surface PrP on LD9 cells; assay type: cell-based; conditions: 24 hours
compound,measurement,setting,value
COc1ccc(CCN2CCC(Nc3nc4ccccc4n3Cc3ccc(F)cc3)CC2)cc1 [Astemizole],"reduction of cell surface PrP, confirmation by secondary screening",[1],confirmed; also recorded: active
same,rebound of infectivity after treatment cessation (22L),22L prions,no rebound of infectivity
same,infection of PK1 neuroblastoma cells by 22L prions (PrPSc western blot),22L prions,block infection
same,rebound of infectivity after treatment cessation (RML),RML prions,no rebound of infectivity
same,infection of PK1 neuroblastoma cells by RML prions (PrPSc western blot),RML prions,block infection
phosphatidylinositol phospholipase C [PIPLC],RI200 (reciprocal of the cell number required to give 200 spots),[2],5×10^−4
same,inhibition of infection,[2]; from RI200 values,85%
same,cell surface PrP removed,cell surface PrP,approximately 50%
CC[C@@]1([C@@H]2O[C@@H]([C@H]3O[C@@](O)(CO)[C@H](C)C[C@@H]3C)C[C@@H]2C)CC[C@H]([C@]2(C)CC[C@]3(C[C@H](O)[C@@H](C)[C@@H]([C@@H](C)[C@@H](OC)[C@H](C)C(=O)O)O3)O2)O1 [Monensin],"reduction of cell surface PrP, confirmation by secondary screening",[1],active
CC[C@@H](C(=O)[C@@H](C)[C@@H](O)[C@H](C)CCc1ccc(C)c(O)c1C(=O)O)[C@H]1O[C@](CC)([C@H]2CC[C@](O)(CC)[C@H](C)O2)C[C@@H]1C [Lasalocid sodium],"reduction of cell surface PrP, confirmation by secondary screening",[1],confirmed; also recorded: active
"C[C@H]1CCC/C=C/[C@@H]2C[C@H](O)C[C@H]2[C@H](O)/C=C/C(=O)O1 [BFA, Brefeldine A]","toxicity to LD9 cells (cell viability, CELLTITER-GLO)",LD9 cells,none of the tested doses of BFA were toxic
same,"PrP expression, percentage of the DMSO control",[3]; 384-well screening plates,0%
CCCCCCCCCCCCCCCC[N+](C)(C)C [cetrimonium],"reduction of cell surface PrP, confirmation by secondary screening",[1],active
C=CC[C@@H]1/C=C(\C)C[C@H](C)C[C@H](OC)[C@H]2O[C@@](O)(C(=O)C(=O)N3CCCC[C@H]3C(=O)O[C@H](/C(C)=C/[C@@H]3CC[C@@H](O)[C@H](OC)C3)[C@H](C)[C@@H](O)CC1=O)[C@H](C)C[C@@H]2OC [Tacrolimus],"reduction of cell surface PrP, confirmation by secondary screening",[1],confirmed
same,"reduction of PrP in the secondary assay, IN Cell analyzer quantification",[1]; at 30 (unit not given),73%
same,"reduction of PrP in the secondary assay, flow cytometry",[1]; at 30 (unit not given),75%
same,rebound of infectivity after treatment cessation (22L),22L prions,no rebound of infectivity
same,infection of PK1 neuroblastoma cells by 22L prions (PrPSc western blot),22L prions,block infection
same,reduction of PrP expression in the primary assay,[3]; 20 μM,70%
same,rebound of infectivity after treatment cessation (RML),RML prions,no rebound of infectivity
same,infection of PK1 neuroblastoma cells by RML prions (PrPSc western blot),RML prions,block infection
CC[C@H]1CN2CCc3cc(OC)c(OC)cc3[C@@H]2C[C@@H]1C[C@H]1NCCc2cc(OC)c(OC)cc21 [Emetine],"reduction of cell surface PrP, confirmation by secondary screening",[1],active

# Source: US9612238B2 (priority 2011, dated 2017)
